Assay results published in patent publication US20250230193A1, “CYCLIC COMPOUND HAVING SELECTIVE KRAS INHIBITORY EFFECT ON HRAS AND NRAS” (CHUGAI SEIYAKU KABUSHIKI KAISHA, priority 2022, published 2025).
*1 amine or outer side, *2 acyl side, *3 side chain or, on linkers, in order; H or OH if unused. Where a SMILES comes first, the peptide text is derived from it. Bridges are numbered along the chain shown (N, C = ends). [ ]: non-standard residue; d: D form. The star is where a group is joined. X6 = CC(C)(C)CCN([C@@H](Cc1ccc(C(F)(F)F)cc1)C(=O)[*:2])[*:1]; X36 = CC(C)CCN([C@@H](Cc1ccc(C(F)(F)F)cc1)C(=O)[*:2])[*:1]; hPhe(3-Cl-4-CF3) = N[C@@H](CCc1ccc(C(F)(F)F)c(Cl)c1)C(=O)O; NMeGly(cPent) = CN[C@H](C(=O)O)C1CCCC1; NMeD = CN[C@@H](CC(=O)O)C(=O)O; NMeL = CN[C@@H](CC(C)C)C(=O)O; Morpholide = C1CN(*)CCO1; NMeA = CN[C@@H](C)C(=O)O; Ac5c = NC1(C(=O)O)CCCC1; Aze = O=C(O)[C@@H]1CCN1; Sar = CNCC(=O)O

Tests used:
[1] = target: GDP-bound HRAS wild-type protein (Homo sapiens, UniProt P01112); assay: Binding to HRAS by surface plasmon resonance (SPR), Single Cycle Kinetics; conditions: SPR
[2] = target: GDP-bound NRAS wild-type protein (Homo sapiens, UniProt P01111); assay: Binding to NRAS by surface plasmon resonance (SPR), Single Cycle Kinetics; conditions: SPR
[3] = GDP-bound HRAS wild-type vs GDP-bound KRAS wild-type
[4] = GDP-bound NRAS wild-type vs GDP-bound KRAS wild-type
[5] = KD ratio, GDP-bound HRAS wild-type vs GDP-bound KRAS wild-type
[6] = KD ratio, GDP-bound NRAS wild-type vs GDP-bound KRAS wild-type

GDP-bound HRAS wild-type protein, sequence (P01112 whole entry): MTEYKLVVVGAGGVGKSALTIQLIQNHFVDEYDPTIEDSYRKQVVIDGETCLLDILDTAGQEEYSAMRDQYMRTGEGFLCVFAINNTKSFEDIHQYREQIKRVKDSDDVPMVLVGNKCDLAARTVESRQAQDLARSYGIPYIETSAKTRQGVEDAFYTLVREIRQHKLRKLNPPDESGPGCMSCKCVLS
GDP-bound NRAS wild-type protein, sequence (P01111 whole entry): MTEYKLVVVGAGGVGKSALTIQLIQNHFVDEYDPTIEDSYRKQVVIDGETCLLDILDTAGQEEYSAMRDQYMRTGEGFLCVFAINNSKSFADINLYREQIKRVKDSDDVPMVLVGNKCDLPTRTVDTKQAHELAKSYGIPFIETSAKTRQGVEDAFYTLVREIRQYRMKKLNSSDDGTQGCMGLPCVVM

Compound: CCCN(C)C(=O)[C@@H]1CC(=O)N(C)[C@@H](CC(F)F)C(=O)N[C@@H]([C@@H](C)CC)C(=O)N(C)CC(=O)N(C)[C@H]2C/C=C\CCN(C2=O)[C@@H](Cc2ccc(C(F)(F)F)cc2)C(=O)N(C)CC(=O)N[C@@H](CCc2cc(F)c(C(F)(F)F)c(F)c2)C(=O)N2C[C@@H](C)C[C@H]2C(=O)NC2(CC(C)(C)C2)C(=O)N(C)[C@@H](C2CCCC2)C(=O)N1C [PP2040]
- HRAS/KRAS (ratio of KD value with respect to HRAS to KD value with respect to KRAS) [1, 3]: A (a compound having 10 or more and less than 20 is denoted as A)
- NRAS/KRAS (ratio of KD value with respect to NRAS to KD value with respect to KRAS) [2, 4]: A (a compound having 10 or more and less than 20 is denoted as A)

Compound: CCC[C@H]1C(=O)N[C@@H](C2CCCC2)C(=O)N(C)CC(=O)N(C)[C@H]2C/C=C\CCN(C2=O)[C@@H](Cc2ccc(C)cc2)C(=O)N(C)CC(=O)N[C@@H](CCc2ccc(C(F)(F)F)c(Cl)c2)C(=O)N2C[C@H](OCC)C[C@H]2C(=O)NC2(CC(C)(C)C2)C(=O)N(C)[C@@H](C2CCCC2)C(=O)N(C)[C@H](C(=O)N(C)C)CC(=O)N1C [PP2198]
- HRAS/KRAS (ratio of KD value with respect to HRAS to KD value with respect to KRAS) [1, 3]: A (a compound having 10 or more and less than 20 is denoted as A)
- NRAS/KRAS (ratio of KD value with respect to NRAS to KD value with respect to KRAS) [2, 4]: A (a compound having 10 or more and less than 20 is denoted as A)

Compound: CC[C@H](C)[C@@H]1NC(=O)[C@H](CC(C)C)N(C)C(=O)C[C@@H](C(=O)N2CCOCC2)N(C)C(=O)[C@H](C2CCCC2)N(C)C(=O)C2(CCCC2)NC(=O)[C@@H]2CCCN2C(=O)[C@H](CCc2ccc(C(F)(F)F)c(Cl)c2)NC(=O)CN(C)C(=O)[C@H](Cc2ccc(C(F)(F)F)cc2)N(CCC(C)(C)C)C(=O)[C@@H]2CCN2C(=O)[C@H](C)N(C)C1=O [PP0113] ([NMeL]I[NMeA][Aze][X6][Sar][hPhe(3-Cl-4-CF3)]P[Ac5c][NMeGly(cPent)][NMeD]-Morpholide; lactam N-11)
- HRAS/KRAS (ratio of KD for GDP-bound HRAS wild-type to KD for KRAS) [1]: B (a compound having 3 or more and less than 10 is denoted as B)
- NRAS/KRAS (ratio of KD for GDP-bound NRAS wild-type to KD for KRAS) [2]: C (A compound having a KD ratio of 0.1 or more and less than 3 is denoted as C)

Compound: CCO[C@@H]1C[C@H]2C(=O)NC3(CCC3)C(=O)N(C)[C@@H](CC(F)F)C(=O)N(C)[C@H](C(=O)N3CCOCC3)CC(=O)N(C)[C@@H](CC(C)C)C(=O)N[C@@H]([C@@H](C)CC)C(=O)N(C)CC(=O)N(C)[C@H]3CCCCCN(C3=O)[C@@H](Cc3ccc(C(F)(F)F)cc3)C(=O)N(C)CC(=O)N[C@@H](CCc3cc(F)c(C(F)(F)F)c(F)c3)C(=O)N2C1 [PP0822]
- HRAS/KRAS (ratio of KD value with respect to HRAS to KD value with respect to KRAS) [1, 5]: B (a compound having 3 or more and less than 10 is denoted as B)
- NRAS/KRAS (ratio of KD value with respect to NRAS to KD value with respect to KRAS) [2, 6]: B (a compound having 3 or more and less than 10 is denoted as B)

Compound: CCO[C@@H]1C[C@H]2C(=O)NC3(CCC3)C(=O)N(C)[C@@H](C3CCCC3)C(=O)N(C)[C@H](C(=O)N3CCOCC3)CC(=O)N(C)[C@@H](Cc3ccc(F)c(F)c3)C(=O)N[C@@H]([C@@H](C)CC)C(=O)N(C)CC(=O)N(C)[C@H]3CCCCCN(C3=O)[C@@H](Cc3ccc(C(F)(F)F)cc3)C(=O)N(C)CC(=O)N[C@@H](CCc3cc(F)c(C(F)(F)F)c(F)c3)C(=O)N2C1 [PP0928]
- HRAS/KRAS (ratio of KD value with respect to HRAS to KD value with respect to KRAS) [1, 5]: B (a compound having 3 or more and less than 10 is denoted as B)
- NRAS/KRAS (ratio of KD value with respect to NRAS to KD value with respect to KRAS) [2, 6]: A (a compound having 10 or more and less than 20 is denoted as A)

Compound: CCCOC[C@H]1C(=O)N[C@@H]([C@@H](C)CC)C(=O)N(C)CC(=O)N(C)[C@H]2C/C=C\CCN(C2=O)[C@@H](Cc2ccc(C(F)(F)F)cc2)C(=O)N(C)CC(=O)N[C@@H](CCc2cc(F)c(C(F)(F)F)c(F)c2)C(=O)N2CC(F)(F)C[C@H]2C(=O)NC2(CC(C)(C)C2)C(=O)N(C)[C@@H](C2CCCC2)C(=O)N(C)[C@H](C(=O)N(C)C)CC(=O)N1C [PP1718]
- HRAS/KRAS (ratio of KD value for HRAS to KD value for KRAS) [1, 5]: A (a compound having 10 or more and less than 20 is denoted as A)
- NRAS/KRAS (ratio of KD value for NRAS to KD value for KRAS) [2, 6]: AA (a compound having 20 or more is denoted as AA)

Compound: CC[C@H](C)[C@@H]1NC(=O)[C@H](CC(C)C)N(C)C(=O)C[C@@H](C(=O)N2CCOCC2)N(C)C(=O)[C@H](C2CCCC2)N(C)C(=O)C2(CCCC2)NC(=O)[C@@H]2CCCN2C(=O)[C@H](CCc2ccc(C(F)(F)F)c(Cl)c2)NC(=O)CN(C)C(=O)[C@H](Cc2ccc(C(F)(F)F)cc2)N(CCC(C)C)C(=O)CN(C)C(=O)CN(C)C1=O [PP0126] ([NMeL]I[Sar][Sar][X36][Sar][hPhe(3-Cl-4-CF3)]P[Ac5c][NMeGly(cPent)][NMeD]-Morpholide; lactam N-11)
- HRAS/KRAS (ratio of KD for GDP-bound HRAS wild-type to KD for KRAS) [1]: C (A compound having a KD ratio of 0.1 or more and less than 3 is denoted as C)
- NRAS/KRAS (ratio of KD for GDP-bound NRAS wild-type to KD for KRAS) [2]: C (A compound having a KD ratio of 0.1 or more and less than 3 is denoted as C)

Compound: C#CC[C@H]1C(=O)N[C@@H]([C@@H](C)CC)C(=O)N(C)CC(=O)N(C)[C@H]2C/C=C\CCN(C2=O)[C@@H](Cc2ccc(C(F)(F)F)cc2)C(=O)N(C)CC(=O)N[C@@H](CCc2cc(F)c(C(F)(F)F)c(F)c2)C(=O)N2C[C@@H](C)C[C@H]2C(=O)NC2(CC(C)(C)C2)C(=O)N(C)[C@@H](C2CCCC2)C(=O)N(C)[C@H](C(=O)N(C)CC)CC(=O)N1C [PP2075]
- HRAS/KRAS (ratio of KD value with respect to HRAS to KD value with respect to KRAS) [1, 3]: A (a compound having 10 or more and less than 20 is denoted as A)
- NRAS/KRAS (ratio of KD value with respect to NRAS to KD value with respect to KRAS) [2, 4]: A (a compound having 10 or more and less than 20 is denoted as A)
